Laboratory results from PMC5244392, “Interspecies cathelicidin comparison reveals divergence in antimicrobial activity, TLR modulation, chemokine induction and regulation of phagocytosis” (Scientific Reports, 2017).

Tests used:
E. coli and MRSA = format: cell-based; settings: run of Fig. 1A; bacterium and medium not given
Method: In order to compare our Cmax with MBC values, wells without visible bacterial growth were plated out on TSA plates and incubated o/n at 37 °C to determine the presence of viable bacteria.
The antimicrobial capacities were tested under the same conditions and expressed as growth delay instead of the more classical MIC/MBC determination using broth dilution assays. […] The fact that DMEM medium makes S. aureus susceptible to PR-39 is surprising since this peptide is thought to require active uptake by the SbmA transporter, only present in Gram – bacteria. The results obtained in this work, might indicate that the peptide possibly switches to a different mechanism of action with initially a bacteriostatic effect, but more thorough studies are required to elucidate the details of these initial observations.

[1] = test system: CCL2 (MCP-1) release by RAW264.7 cells; assay: Cathelicidin induced CCL2 release; format: cell-based, murine; settings: 24 h, peptide 0.08-20 μM
Method: (§1) E. coli O78 (Zoetis Animal Health, Kalamazoo, MI, USA), E. coli ATCC 25922, Staphylococcus aureus ATCC 29213, and methicillin resistant Staphylococcus aureus (MRSA) (WKZ-2, human clinical isolate) were grown overnight from a glycerol stock in Mueller Hinton Broth (MHB) (Becton Dickinson, USA). Before use, bacteria were grown to mid-log phase in MHB for 2 hours at 37 °C, 200 RPM. Murine RAW264.7 macrophages (ATCC-TIB-71) were obtained from the American Type Culture Collection (ATCC, Manassas, VA, USA) and cultured in DMEM (41966-029; Thermo Fisher Scientific, Waltham, MA, USA) supplemented with 10% FCS (Bodinco B.V., Alkmaar, the Netherlands) (DMEM + FCS) at 37 °C, 5.0% CO2. Cells were seeded in 96-wells plates at 5 × 10^5 cells/ml or 12-wells plates at 2 × 10^5/ml for adherence overnight prior to stimulation.
ELISA Duoset kits for mouse TNFα, CCL5, CXCL10 and IL-10 were obtained from R&D systems (Minneapolis, MN, USA) and ELISAs were performed according to the manufacturer’s protocol. Samples were stored at −20 °C until analysis and, if needed, diluted in 1% BSA in PBS, pH 7.4. Absorbance at 450 nm was determined in a FLUOstar Omega microplate reader (BMG Labtech GmbH) and corrected for absorbance at 570 nm. Results were analyzed with MARS data analysis software (BMG Labtech GmbH).
Since cathelicidins have membrane-perturbing properties which might affect the host’s cell membrane, first the possible cytotoxicity of the cathelicidins to RAW264.7 cells was assessed. […] Next, RAW264.7 cells were stimulated with the cathelicidins at various concentrations for 2 h and 24 h, after which release of CCL2 (MCP-1), CCL5 (RANTES), CXCL10 (IP-10), TNFα and IL-10 was determined.
Figure 2 Cathelicidin induced chemokine and cytokine release by RAW264.7 cells. RAW264.7 cells were incubated for 2 h and 24 h with cathelicidins (0.08 μM, 0.31 μM, 1.25 μM, 5 μM, and 20 μM), after which the supernatants were harvested and tested for release of CCL2 at 2 h (A) and 24 h (B), CCL5 at 24 h (C) and CXCL10 at 24 h (D). Dotted line represents average cytokine release of control samples. Results are presented as average +/− SEM (N = 3). Statistical differences were determined by Two-way ANOVA with Bonferroni post-hoc test.

[2] = test system: methicillin resistant Staphylococcus aureus (MRSA) (WKZ-2, human clinical isolate); assay: Bacterial growth delay (Bioscreen C), MRSA; format: cell-based
Method: as §1
(§2) Peptides (0.63 to 40 μM) and bacteria mid-log cultures (2 * 10^6 CFU/ml) were prepared in MHB or DMEM + FCS and mixed (100 μl peptide + 100 μl bacterial culture) in a Bioscreen C analyzer plate (Oy Growth Curves Ab Ltd, Helsingfors, Finland). Plates were placed in a Bioscreen C analyzer (Oy Growth Curves Ab Ltd) and bacteria were grown for 16 h at 37 °C with 200 RPM. The OD was measured every 15 minutes using a wideband filter (450–580 nm) to measure bacterial growth. The time needed grow above an OD of 0.6 was determined for all concentrations. Activity of peptides was expressed as the Cmax, the concentration of peptide required to delay the growth for 10 h compared to the control. Or, for peptides with low activity (no Cmax), activity was expressed as the hours of growth delay at 20 μM. Unlike the classic MIC and MBC determination used in microbiology, this method also enabled comparison of peptides with low antibacterial activity.
(§3) Twelve cathelicidins from 6 different species were selected for this study, namely: human LL-37, murine CRAMP, dog K9CATH, equine CATH (eCATH)-1, -2 and -3, chicken CATH (chCATH)-1, -2, and -3, porcine PMAP-23 and -36 and PR-39 (Table 1). Antimicrobial activity against E. coli and MRSA was directly compared under standardized conditions in MHB, a medium optimized for bacterial growth. Bacterial growth delay was defined as the delay in hours for peptide-treated bacteria to reach an OD of 0.6, compared to the non-treated control. Cmax is the minimal concentration needed to delay growth for a minimum of 10 hours compared to the non-treated control (Table 1 and Fig. 1A).
(§4) Figure 1 Antibacterial activity of cathelicidins. E. coli and MRSA (1 × 10^6 CFU/ml) of were grown in MHB or DMEM ± FCS for 16 hours under constant shaking (200 RPM). Every 15 minutes the OD was measured. Growth delay was defined as the time needed for peptide-treated bacteria to grow above an OD of 0.6 compared to the control bacteria (no peptide added) (A). Cathelicidins were tested in different concentrations (0.31 μM, 0.63 μM, 1.25 μM, 2.5 μM, 5 μM, 10 μM, and 20 μM) to determine the antimicrobial activity in MHB against E. coli (B) or MRSA (C) and in more physiological medium DMEM + FCS (D,E). Results are presented as average +/− SEM (N = 4).

E. coli O78 = assay: Bacterial growth delay (Bioscreen C), E. coli; format: cell-based, Escherichia coli; settings: for Max: hours growth delay with 20 μM cathelicidin, E. coli, DMEM: DMEM + FCS
Method: as §1, §2, §3, §4

RAW264.7 cells = assay: Phagocytosis assay with fluorescent latex beads; format: cell-based, murine; settings: latex beads 10 per cell, 30 min, peptide 0.31, 1.25 and 5 μM
Method: Red fluorescent (λex 575 nm and λem 610 nm) carboxylate-modified polystyrene latex beads (0.5 μm; Sigma Aldrich, St. Louis, MO, USA) were washed three times with PBS and resuspended in culture medium. Peptide dilutions were prepared in culture medium and added to RAW264.7 cells, directly followed by the latex beads (ratio 10 beads to 1 cell). Cells were incubated for 30 minutes at 37 °C, 5% CO2 (energy-dependent uptake) or 0 °C (non-specific adherence), after which cells were washed extensively with ice-cold PBS supplemented with 1% FCS and 0.01% NaN3, to remove all free beads. After washing, cells were scraped and resuspended in FACS buffer (PBS supplemented with 0.5% BSA). Samples were measured with the BD FACSCanto II flow cytometer (BD Biosciences, San Jose, CA, USA) and analyzed with FlowJo software (Ashland, OR, USA). Mean fluorescence intensity (MFI), corrected for non-specific adherence, was used as an indicator for the number of beads taken up.
While the above-described functions of cathelicidins are well-known, relatively little is known about the influence of cathelicidins on phagocytosis. Therefore, RAW264.7 cells were incubated with fluorescent beads to study the effect of cathelicidins on phagocytosis. The uptake was corrected for fluorescence measured after incubation on ice instead of 37 °C, which inhibits the active process of phagocytosis. After 30 minutes, 90% of the RAW264.7 cells took up latex beads (Fig. 4A). Histograms exemplify changes in bead phagocytosis with different concentrations of K9CATH (Fig. 4B), eCATH-2 (Fig. 4C) and chCATH-3 (Fig. 4D). Effect of all cathelicidins are depicted by the average mean fluorescence intensity (MFI) in Fig. 4E.
Figure 4 Effects of cathelicidins on phagocytosis by RAW264.7 cells. RAW264.7 cells were incubated with cathelicidins (0.31 μM, 1.25 μM, and 5 μM) and red fluorescent latex beads (10 beads to 1 cell) at 37 °C (energy dependent uptake) or on ice (non-specific adherence) for 30 minutes. Histograms show control (no peptide present) bead uptake at 37 °C (gray, filled) and 0 °C (black line) (A), or uptake in presence of different concentrations of indicated cathelicidins (B–D); 0 μM (red, filled), 0.31 μM (black line), 1.25 μM (green line) or 5 μM (blue line). Uptake was quantified by determining the MFI after correction for 0 °C control (E). Results are presented as average +/− SEM (N = 3). Statistical differences were determined by Two-way ANOVA with Bonferroni post-hoc test.

[3] = MHB, 20 μM peptide, given if no Cmax was reached, N = 4
[4] = 20 μM peptide, given if no Cmax was reached, N = 4

Compound | MBC (E. coli and MRSA) | Effect on CCL2 secretion after 24 h stimulation, in words [1] | Cmax, MRSA, DMEM ([2]; DMEM + FCS, 1 × 10^6 CFU/ml, peptide 0.31-20 μM, 16 h, 37 °C, — = no Cmax reached up to 20 μM, N = 4) | Summary class, antimicrobial activity S. aureus DMEM ([2]; DMEM + FCS, MRSA, − is not defined in the key) | Max: hours growth delay with 20 μM cathelicidin, MRSA, MHB [2, 3] | Summary class, antimicrobial activity S. aureus MHB ([2]; MHB, MRSA, − is not defined in the key) | Max: hours growth delay with 20 μM cathelicidin, E. coli, DMEM (E. coli O78; [4]) | Cmax: cathelicidin concentration resulting in a delay in bacterial growth with minimal 10 hours, E. coli, MHB (E. coli O78; MHB, 1 × 10^6 CFU/ml, peptide 0.31-20 μM, 16 h, 37 °C, 200 RPM, time to OD 0.6 vs control, — = no Cmax reached up to 20 μM, N = 4) | Summary class, antimicrobial activity E. coli MHB (E. coli O78; MHB, − is not defined in the key) | Effect on bead uptake (phagocytosis), in words (RAW264.7 cells) | Max: hours growth delay with 20 μM cathelicidin, MRSA, DMEM ([2]; DMEM + FCS, 20 μM peptide, given if no Cmax was reached, N = 4) | Activity against E. coli in MHB, in words (E. coli O78; MHB, peptide up to 20 μM) | Max: hours growth delay with 20 μM cathelicidin, E. coli, MHB (E. coli O78; MHB, 20 μM peptide, given if no Cmax was reached, time to OD 0.6 vs control, N = 4)
CC[C@H](C)[C@H](NC(=O)[C@H](CCCCN)NC(=O)[C@H](CCC(=O)O)NC(=O)[C@H](CCCCN)NC(=O)[C@H](CO)NC(=O)[C@H](CCCCN)NC(=O)[C@H](CCCNC(=N)N)NC(=O)[C@H](Cc1ccccc1)NC(=O)[C@H](Cc1ccccc1)NC(=O)[C@H](CC(=O)O)NC(=O)CNC(=O)[C@H](CC(C)C)NC(=O)[C@@H](N)CC(C)C)C(=O)NCC(=O)N[C@@H](CCCCN)C(=O)N[C@@H](CCC(=O)O)C(=O)N[C@@H](Cc1ccccc1)C(=O)N[C@@H](CCCCN)C(=O)N[C@@H](CCCNC(=N)N)C(=O)N[C@H](C(=O)N[C@H](C(=O)N[C@@H](CCC(N)=O)C(=O)N[C@@H](CCCNC(=N)N)C(=O)N[C@H](C(=O)N[C@@H](CCCCN)C(=O)N[C@@H](CC(=O)O)C(=O)N[C@@H](Cc1ccccc1)C(=O)N[C@@H](CC(C)C)C(=O)N[C@@H](CCCNC(=N)N)C(=O)N[C@@H](CC(N)=O)C(=O)N[C@@H](CC(C)C)C(=O)N[C@H](C(=O)N1CCC[C@H]1C(=O)N[C@@H](CCCNC(=N)N)C(=O)N[C@H](C(=O)N[C@@H](CCC(=O)O)C(=O)N[C@@H](CO)C(=O)O)[C@@H](C)O)C(C)C)[C@@H](C)CC)C(C)C)[C@@H](C)CC [LL-37] | > 20 µM | – | – | – | – | – | – | – | – | – | – | – | –
KRFGRLAKSFLRMRILLPRRKILLAS [eCATH-1, equine CATH-1, 26 residues, charge +9] | – | non-significant | 20 µM | +++ (+++ = Cmax at ≤20 μM) | 7.5 h | + (+ = >4 hours inhibition at 20 μM) | 3.5 h | 20 µM | +++ (+++ = Cmax at ≤20 μM) | did not affect bead uptake | – | – | –
KRFHSVGSLIQRHQQMIRDKSEATRHGIRIITRPKLLLAS [eCATH-3, equine CATH-3, 40 residues, charge +10] | – | – | – | – | 0.0 h | – | 1.5 h | – | – | did not affect bead uptake | 1.5 h | no or very little activity | 0.0 h
